Data taken from article PMC8557866, “Novel Small Molecule Growth Inhibitor Affecting Bacterial Outer Membrane Reduces Extraintestinal Pathogenic Escherichia coli (ExPEC) Infection in Avian Model” (Microbiology Spectrum, 2021).
In brackets after ≈: the same amount, converted by molar mass. Like-named read-outs stand apart in the source and are kept apart here.

Key:
APEC serotype O78 = test system: APEC serotype O78
Description: The efficacy of GIs was assessed using commercial broiler chickens (n = 6/group). […] GI compounds (ChemBridge, San Diego, CA) dissolved in dimethyl sulfoxide (DMSO) were administered orally using a syringe, twice a day, from day 4 (1 day before APEC infection) to day 8 (3 days postinfection [dpi]). The dose of each GI is described in Table S1. […] Chickens that were infected and vehicle-treated (positive control [PC]) and noninfected and nontreated (negative control [NC]) were included as controls. On day 5, chickens were infected subcutaneously (s.c.) with rifampin-resistant (Rif^r) APEC serotype O78 ([18]) (1 × 10^7 CFU/chicken). […] To prepare the APEC inoculum for infection, Rif^r APEC O78 (50 μg/ml rifampin) was grown to logarithmic phase in LB medium, washed twice with phosphate-buffered saline (PBS), and adjusted to an optical density at 600 nm (OD600) of 0.1 (5 × 10^7 CFU/ml). The clinical signs and mortality were recorded until 7 dpi. Chickens that died during this period were necropsied on the same day, lesions in internal organs (liver, heart, lung, and air sacs) were scored as described previously ([63], [71]), and the APEC loads were quantified in internal organs (liver, heart, lung, and kidney) by plating the tissue homogenates on MacConkey agar plates containing 50 μg/ml rifampin ([18]). At 7 dpi (day 12), all live birds were euthanized, lesions were scored, and the APEC loads in internal organs were quantified as described above. The body weight of chickens was measured before GI treatment (day 3) and at the day of necropsy (day 12).

APEC O78 [1] = conditions: for Mortality reduction compared to PC group: 7 days, PC mortality 60%; for Cumulative lesion score: PC 8.8; for Survival of chickens: P < 0.05, log-rank test
Description: Prior to selection of these doses, we conducted a preliminary study using 20-mg/liter, 200-mg/liter, and 500-mg/liter doses (doses similar to those of antibiotics currently used in the poultry industry). […] The experiment was conducted using commercial broiler chickens (n = 11/group) as described above following procedures described in Fig. S1A. […] The amount of drinking water was adjusted daily based on the age and requirement of chickens (https://www.thepoultrysite.com/articles/broiler-water-consumption). The clinical signs and mortality, lesion scores, and APEC loads were determined as described above.

APEC O78 [2] = experiment: Comparative efficacy of GI-7 and sulfadimethoxine, floor trial; format: in vivo, commercial broiler chickens; set-up: Cumulative lesion score / Mean lesion score in Liver / Mean lesion score in Heart / Mean lesion score in Lung / Mean lesion score in Air sacs: scale not given here
Description: At day 13 (7 dpi), half of the chickens from each group, and at day 42 (slaughter age), 10 chickens from each group were necropsied and lesions and APEC loads were assessed as described above.

APEC O78 [3] = test system: APEC O78; set-up: method as in PMID 30333507; conditions: cited from earlier work
APEC = conditions: 10^9 CFU with 2× MBC or 15 passages at 0.75× MIC; cited from earlier work
[4] = 20 mg/L in drinking water, vs PC
[5] = 20 mg/liter in drinking water, vs PC
[6] = 40 mg/L in drinking water, vs PC
[7] = 40 mg/liter in drinking water, vs PC
[8] = 60 mg/L in drinking water, vs PC
[9] = 60 mg/liter in drinking water, vs PC
[10] = comparative efficacy trial, vs PC
[11] = comparative efficacy, GI-7 60 mg/liter, SDM 495.3 mg/liter, 7 dpi

COc1ccc(CNCc2cccc(C(F)(F)F)c2)cc1OCC(O)CN1CCCC1 (centres unmarked) [GI-7]
Mean APEC load, Heart (APEC serotype O78; efficacy trial, oral): 2.7 Log CFU/g tissues | Mean APEC load, Kidney (APEC serotype O78; efficacy trial, oral): 2.3 Log CFU/g tissues | Mean APEC load, Liver (APEC serotype O78; efficacy trial, oral): 2.1 Log CFU/g tissues | Mean APEC load, Lung (APEC serotype O78; efficacy trial, oral): 2.7 Log CFU/g tissues | Mean lesion score in Air sacs (APEC serotype O78; efficacy trial, oral): 0.7 | Mean lesion score in Heart (APEC serotype O78; efficacy trial, oral): 0.8 | Mean lesion score in Liver (APEC serotype O78; efficacy trial, oral): 0.7 | Mean lesion score in Lung (APEC serotype O78; efficacy trial, oral): 0.2 | Survival of chickens (APEC serotype O78; efficacy trial, oral, P ≤ 0.1, log rank test): prolonged the survival | Cumulative lesion score (APEC serotype O78; efficacy trial, oral, PC 6.2): 2.3 | Mortality reduction compared to PC group (APEC serotype O78; efficacy trial, oral, PC mortality 58.3%): 41.7% | % reduction in severity, Air sacs lesions (APEC serotype O78; efficacy trial, oral, vs PC): 52.9% | % reduction in severity, Heart lesions (APEC serotype O78; efficacy trial, oral, vs PC): 60% | % reduction in severity, Liver lesions (APEC serotype O78; efficacy trial, oral, vs PC): 60% | % reduction in severity, Lung lesions (APEC serotype O78; efficacy trial, oral, vs PC): 83.3% | log reduction in APEC load, Heart (APEC serotype O78; efficacy trial, oral, vs PC): 2.3 Log CFU/g tissues | log reduction in APEC load, Kidney (APEC serotype O78; efficacy trial, oral, vs PC): 3.2 Log CFU/g tissues | log reduction in APEC load, Liver (APEC serotype O78; efficacy trial, oral, vs PC): 2.5 Log CFU/g tissues | log reduction in APEC load, Lung (APEC serotype O78; efficacy trial, oral, vs PC): 2.4 Log CFU/g tissues | BWG (body weight gain) (APEC serotype O78; in vivo): 261.3±20.4 | Mean APEC load, Heart (APEC O78 [1]; 20 mg/L in drinking water): 6.7 Log CFU/g tissues | Mean APEC load, Kidney (APEC O78 [1]; 20 mg/L in drinking water): 5.9 Log CFU/g tissues | Mean APEC load, Liver (APEC O78 [1]; 20 mg/L in drinking water): 6.0 Log CFU/g tissues | Mean APEC load, Lung (APEC O78 [1]; 20 mg/L in drinking water): 6.3 Log CFU/g tissues | log reduction in APEC load, Heart (APEC O78 [1]; [4]): -0.2 Log CFU/g tissues | log reduction in APEC load, Kidney (APEC O78 [1]; [4]): 0.2 Log CFU/g tissues | log reduction in APEC load, Liver (APEC O78 [1]; [4]): -0.1 Log CFU/g tissues | log reduction in APEC load, Lung (APEC O78 [1]; [4]): -0.4 Log CFU/g tissues | Mean lesion score in Air sacs (APEC O78 [1]; 20 mg/liter in drinking water): 2.3 | Mean lesion score in Heart (APEC O78 [1]; 20 mg/liter in drinking water): 2.7 | Mean lesion score in Liver (APEC O78 [1]; 20 mg/liter in drinking water): 2 | Mean lesion score in Lung (APEC O78 [1]; 20 mg/liter in drinking water): 1.8 | Mortality reduction compared to PC group (APEC O78 [1]; 20 mg/liter in drinking water): 10% | Cumulative lesion score (APEC O78 [1]; 20 mg/liter in drinking water): 8.8 | % reduction in severity, Air sacs lesions (APEC O78 [1]; [5]): 1.4% | % reduction in severity, Heart lesions (APEC O78 [1]; [5]): −9.5% | % reduction in severity, Liver lesions (APEC O78 [1]; [5]): 0% | % reduction in severity, Lung lesions (APEC O78 [1]; [5]): 10% | Mean APEC load, Heart (APEC O78 [1]; 40 mg/L in drinking water): 4.4 Log CFU/g tissues | Mean APEC load, Kidney (APEC O78 [1]; 40 mg/L in drinking water): 4.2 Log CFU/g tissues | Mean APEC load, Liver (APEC O78 [1]; 40 mg/L in drinking water): 3.9 Log CFU/g tissues | Mean APEC load, Lung (APEC O78 [1]; 40 mg/L in drinking water): 4.0 Log CFU/g tissues | log reduction in APEC load, Heart (APEC O78 [1]; [6]): 2.0 Log CFU/g tissues | log reduction in APEC load, Kidney (APEC O78 [1]; [6]): 1.9 Log CFU/g tissues | log reduction in APEC load, Liver (APEC O78 [1]; [6]): 2.0 Log CFU/g tissues | log reduction in APEC load, Lung (APEC O78 [1]; [6]): 2.0 Log CFU/g tissues | Reduction of severity of APEC lesions in internal organs (APEC O78 [1]; 40 mg/liter and 60 mg/liter in drinking water, vs PC): up to 36.3% | Mean lesion score in Heart (APEC O78 [1]; 40 mg/liter in drinking water): 2.6 | Mean lesion score in Liver (APEC O78 [1]; 40 mg/liter in drinking water): 2 | Mortality reduction compared to PC group (APEC O78 [1]; 40 mg/liter in drinking water): 50% | Survival of chickens (APEC O78 [1]; 40 mg/liter in drinking water): prolonged the survival | Cumulative lesion score (APEC O78 [1]; 40 mg/liter in drinking water): 7.7 | % reduction in severity, Heart lesions (APEC O78 [1]; [7]): −5.4% | % reduction in severity, Liver lesions (APEC O78 [1]; [7]): 0% | % reduction in severity, Lung lesions (APEC O78 [1]; [7]): 30% | Mean APEC load, Heart (APEC O78 [1]; 60 mg/L in drinking water): 4.0 Log CFU/g tissues | Mean APEC load, Kidney (APEC O78 [1]; 60 mg/L in drinking water): 3.6 Log CFU/g tissues | Mean APEC load, Liver (APEC O78 [1]; 60 mg/L in drinking water): 3.5 Log CFU/g tissues | Mean APEC load, Lung (APEC O78 [1]; 60 mg/L in drinking water): 4.4 Log CFU/g tissues | log reduction in APEC load, Heart (APEC O78 [1]; [8]): 2.4 Log CFU/g tissues | log reduction in APEC load, Kidney (APEC O78 [1]; [8]): 2.5 Log CFU/g tissues | log reduction in APEC load, Liver (APEC O78 [1]; [8]): 2.4 Log CFU/g tissues | log reduction in APEC load, Lung (APEC O78 [1]; [8]): 1.6 Log CFU/g tissues | Mean lesion score in Heart (APEC O78 [1]; 60 mg/liter in drinking water): 2.1 | Mean lesion score in Lung (APEC O78 [1]; 60 mg/liter in drinking water): 1.4 | Mortality reduction compared to PC group (APEC O78 [1]; 60 mg/liter in drinking water): 50.9% | Survival of chickens (APEC O78 [1]; 60 mg/liter in drinking water): prolonged the survival | Cumulative lesion score (APEC O78 [1]; 60 mg/liter in drinking water): 6.6 | % reduction in severity, Air sacs lesions (APEC O78 [1]; [9]): 33.8% | % reduction in severity, Heart lesions (APEC O78 [1]; [9]): 15.2% | % reduction in severity, Liver lesions (APEC O78 [1]; [9]): 13.6% | % reduction in severity, Lung lesions (APEC O78 [1]; [9]): 36.3% | Anti-APEC effect compared to treatment at 60 mg/liter (APEC O78 [1]; 80 mg/liter, follow-up study, data not shown): did not result in a better anti-APEC effect | Reduction of severity of lesions (APEC O78 [2]; 60 mg/liter in drinking water, as given in the abstract): 29.5% | Mortality reduction compared to PC group (APEC O78 [2]; GI-7 60 mg/liter, SDM 495.3 mg/liter in drinking water, PC mortality 41.2%): 14.7% | Mean APEC load, Heart (APEC O78 [2]; comparative efficacy trial): 6.1 Log CFU/g tissues | Mean APEC load, Kidney (APEC O78 [2]; comparative efficacy trial): 6.1 Log CFU/g tissues | Mean APEC load, Liver (APEC O78 [2]; comparative efficacy trial): 5.7 Log CFU/g tissues | Mean APEC load, Lung (APEC O78 [2]; comparative efficacy trial): 6.1 Log CFU/g tissues | log reduction in APEC load, Heart (APEC O78 [2]; [10]): 1.8 Log CFU/g tissues | log reduction in APEC load, Kidney (APEC O78 [2]; [10]): 1.6 Log CFU/g tissues | log reduction in APEC load, Liver (APEC O78 [2]; [10]): 1.8 Log CFU/g tissues | log reduction in APEC load, Lung (APEC O78 [2]; [10]): 2.0 Log CFU/g tissues | Cumulative lesion score (APEC O78 [2]; comparative efficacy, 7 dpi): 9.8 | Mean lesion score in Air sacs (APEC O78 [2]; [11]): 3.0 | Mean lesion score in Heart (APEC O78 [2]; [11]): 3.2 | Mean lesion score in Liver (APEC O78 [2]; [11]): 2.3 | Mean lesion score in Lung (APEC O78 [2]; [11]): 1.3 | % reduction in severity, Air sacs lesions (APEC O78 [2]; comparative efficacy, vs PC): 9.9% | % reduction in severity, Heart lesions (APEC O78 [2]; comparative efficacy, vs PC): 10.2% | % reduction in severity, Liver lesions (APEC O78 [2]; comparative efficacy, vs PC): 7.2% | % reduction in severity, Lung lesions (APEC O78 [2]; comparative efficacy, vs PC): 29.5% | Effect on body weight gain (BWG) and feed conversion ratio (FCR) (APEC O78 [2]; floor trial): No significant effect | Overall BWG (APEC O78 [2]; floor trial, day 42 minus day 1, NC 2,501.2): 2,432.4 g | Overall FCR (APEC O78 [2]; floor trial, NC 1.45): 1.45 | Survival of chickens (APEC O78 [2]; floor trial, P < 0.1): increased the survival | MIC (APEC O78 [3]): 25 µM (≈ 11 µg/mL) | Resistance in vitro (APEC): no resistance
